Experimental data as given in patent US20060189519A1, “Anti-angiogenic fragments fo pigment epithelium-derived factor (pedf)” (priority 2002, published 2006).

Columns and labels:
HUVECs = assay: Endothelial cell apoptosis assay (TUNEL, ApopTag); assay type: cell-based, human; settings: for induction of endothelial cell apoptosis: in vitro, low serum (0.2%)
Procedure: FIG. 5. Endothelial cell apoptosis induced by TGA and ERT-L PEDF peptides. 90% confluent HUVECs were treated with increasing concentrations of TGA (FIG. 5A) or ERT-L (FIG. 5B). Apoptotic cells were detected with ApopTag assay kit (Intergen) and percent of TUNEL positive cells calculated.
Apoptosis by PEDF and by the 34-mer were mediated by the same signaling events including activation of JNK-1. Apoptosis by both PEDF and by its 34-mer fragment were abolished in the presence of JNK-1 specific inhibitor SP600125 (BioMol). […] The 44-mer had no activity.
Cells were plated on gelatinized glass cover slips in 24-well tissue culture plates at 5×10^4 cells/well, treated with indicated compounds in low serum (0.2%), fixed in 1% buffered paraformaldehyde, stained using the ApopTag in situ cell death detection kit according to the manufacturer's instructions (Serologicals corporation) and counterstained with propidium iodide. The percentage of terminal deoxynucleotidyl transferase-mediated dUTP nick end labeling (TUNEL)-positive cells was calculated as the number of TUNEL-positive cells (counted in 2-6 randomly selected fields from two different chambers) divided by the total number of cells. 600-1200 cells were scored for each treatment.
Human umbilical vein endothelial cells (HUVEC, NCI) were grown to 90% confluence and treated with peptides overnight in low (0.2%) serum. Apoptotic cells were detected using TUNEL assay kit (InterGene) and percent apoptotic cells were calculated (FIG. 5).

[1] = system: bFGF-induced corneal angiogenesis; assay: Mouse corneal neovascularization assay (bFGF pellet); assay type: in vivo; settings: for effect on mouse corneal neovascularization in vivo: bFGF pellet, peptides at 10 and 100 μM; for Positive comeas/total: bFGF 50 ng/pellet, day 5 after implantation
Procedure: Angiogenesis was induced in the mouse cornea by implanting slow release pellets containing bFGF (50 ng/pellet). Peptides at 10 and 100 μM were added where indicated. Angiogenesis was observed on day 5 after implantation and a vigorous ingrowth of the blood vessels reaching the pellet was scored as a positive response. The peptide abbreviations are as above; PBS is phosphate buffer solution.

[2] = system: endothelial cells (HUVEC); assay: Endothelial cell migration up the gradient of pro-angiogenic bFGF; assay type: cell-based, human
Procedure: HUVEC migration assay are performed as previously described (Good et al., PNAS, 1990). The cells are starved overnight in MCDB131 medium supplemented with 0.1% bovine serum albumin (BSA, Sigma) and placed at 1.5 10^6 cells/ml in the bottom part of a 48-well modified Boyden chambers (Neuroprob Corp.), separated from the top part by gelatinized micro porous membrane (8 μm pore size, Nucleopor/Whatman). The inverted chambers are incubated for 1.5 h for the cells to attach. The chamber are then re-inverted, test substances added to the top part of the top well and incubated for additional 3h30 to allow migration. The chamber are disassembled, the membranes fixed, the cells visualized using Diff-Quick staining kit (Fisher). Then, the stained membranes are dried, mounted, and the cells migrated to the top part of membrane counted in 10 high-powered (400×) fields. MCDB131 containing 0.1% BSA, is used as a negative control and 10 ng/ml bFGF as a positive control. Each substance is tested in quadruplicate to allow statistical evaluation of the data within a single experiment. Each experiment is repeated 3 times to ensure the reproducibility.
The peptides were tested in vitro for their ability to block endothelial cell migration up the gradient of pro-angiogenic bFGF.

[3] = system: Microvascular endothelial cells (HMVECs); assay: VEGF-induced endothelial cell chemotaxis/migration assay (Boyden chamber); assay type: cell-based, human; settings: at 100 nM (44-mer: 100 nM or higher)
Procedure: FIG. 3. In vitro anti-angiogenic activity by […] and 44-mer PEDF peptides. Microvascular endothelial cells (HMVECs) chemotaxis up the gradient of pro-angiogenic VEGF was examined in the presence of the 44-mer or 34-mer. FIG. 3A Recombinant PEDF (rPEDF, BH) (10 nM), 34-mer (1 μM) and 44-mer (1 μM) were tested alone (empty bars), or in the presence of VEGF (hatched bars). Anti-PEDF neutralizing antibodies were added where shown (filled bars). FIG. 3B 34-mer (●) and 44-mer (♦) were tested with VEGF (100 pg/ml) at increasing concentrations. ED50 was determined using regression curves.
Two large peptides from PEDF, a “34-mer” (amino acids 24-57 of SEQ ID NO:1) and a “44-mer” (residues 58-101 of SEQ ID NO:1), were tested for their ability to block angiogenesis. […] (Alberdi et al., 1999) In the anti-angiogenesis assays, only the 34-mer inhibited VEGF-induced angiogenesis in vitro. Anti-angiogenic activity of the 34-mer peptide was blocked with neutralizing antibodies effective against the whole molecule.
HUVEC migration assay are performed as previously described (Good et al., PNAS, 1990). […] Then, the stained membranes are dried, mounted, and the cells migrated to the top part of membrane counted in 10 high-powered (400×) fields. […]

[4] = system: Y-79 retinoblastoma cells; settings: previously shown (Alberdi et al., 1999); cited from earlier work

| Substance | induction of endothelial cell apoptosis (HUVECs) | effect on mouse corneal neovascularization in vivo [1] | Positive comeas/total ([1]; peptide 10 μM) | Positive comeas/total ([1]; peptide 100 μM) | ability to block endothelial cell migration up the gradient of bFGF [2] | dose at which maximal apoptosis effect is reached (HUVECs; cultured endothelial cells) | inhibition of VEGF-induced endothelial cell chemotaxis [3] | binding to and differentiation of Y-79 retinoblastoma cells [4] |
| --- | --- | --- | --- | --- | --- | --- | --- | --- |
| acetyl-TGALVEEEDPF-amide (Ac-TGALVEEEDPF-NH2) [PEDF residues 16-26] | induced apoptosis | blocked mouse corneal neovascularization | 4/6 | 2/6 | showed anti-angiogenic activity |  |  |  |
| acetyl-SSPDIHGTYKE-amide (Ac-SSPDIHGTYKE-NH2) [PEDF residues 94-104] |  |  | 6/6 | 4/4 |  |  |  |  |
| DPFFKVPVNKLAAAVSNFGYDLYRVRSSMSPTTN [34-mer] |  |  |  |  |  | 100 nM | inhibited |  |
| 44-mer: PEDF peptide, residues 58-101 of SEQ ID NO:1, previously shown to have neurotrophic activity (VLLSPLSVATALSALSLGAEQRTESIIHRALYYDLISSPDIHGT; listed as Homo sapiens) [reference compound] | no activity |  |  |  |  |  | no inhibitory activity | bind to and induce differentiation |
| acetyl-ERTESIIHRALYYDLIS-amide (Ac-ERTESIIHRALYYDLIS-NH2) [ERT-L, PEDF residues 78-94] | induced apoptosis | blocked mouse corneal neovascularization | 2/6 | 1/5 | showed anti-angiogenic activity |  |  |  |
| acetyl-LYYDLISSPDIHGTYKE-amide (Ac-LYYDLISSPDIHGTYKE-NH2) [PEDF residues 88-104] |  |  | 5/6 | 5/5 |  |  |  |  |
| acetyl-ERTESIIHRAL-amide (Ac-ERTESIIHRAL-NH2) [ERT-S, PEDF residues 78-88] |  |  | 5/6 | 4/6 |  |  |  |  |
